Assay results reported in patent USRE38257E1, “Piperdine derivatives and hypotensives containing the same” (Ajinomoto Co., Inc., priority 1988, dated 2003).

System: male spontaneously hypertensive rats
Experiment: Decrease in systolic blood pressure in spontaneously hypertensive rats after intravenous bolus injection, indirect (tail-cuff) method
Assay type: in vivo, rat
Conditions: for Decrease in systolic blood pressure (mmHg) time after administration (hour) 0.5: 0.5 hour after administration; for Decrease in systolic blood pressure (mmHg) time after administration (hour) 4: 4 hours after administration
Experimental: As test animals, four male spontaneously hypertensive rats (weight 400 to 440 g) that were sufficiently adapted for feeding and in which hypertension was confirmed were used.
Physiological saline aqueous solution containing 2.5% Nicolle and 2.5% ethanol of sample was intravenously administered by bolus injection at a dose of 1 ml per 1 kg of body weight. Systolic blood pressure after administration was measured by the indirect (tail-cuff) method.

Structure (SMILES)	Decrease in systolic blood pressure (mmHg) time after administration (hour) 0.5 (dose 10 mg/kg i.v. bolus)	Decrease in systolic blood pressure (mmHg) time after administration (hour) 4 (dose 10 mg/kg i.v. bolus)	other results
COc1ccc(CCC(=O)N2CCC(=C3c4ccccc4C=Cc4ccccc43)CC2)cc1OC [Example 202, 4-(5H-Dibenzo[a,d]cyclohepten-5-ylidene)-1-(3-(3′,4′-dimethoxyphenyl)propanoyl)piperidine]	−54 mmHg	−16 mmHg	
Cl.O=C(NCCN1CCCCC1=C1c2ccccc2C=Cc2ccccc21)c1ccccc1[N+](=O)[O-] [Example 291, N-(2-(5H-Dibenzo[a,d]cyclohepten-5-ylidene)-1-piperidinyl)ethyl-2-nitrobenzamide hydrochloride]			Decrease in systolic blood pressure (mmHg) time after administration (hour) 0.5 (dose 3 mg/kg i.v. bolus): −8 mmHg; Decrease in systolic blood pressure (mmHg) time after administration (hour) 4 (dose 3 mg/kg i.v. bolus): 15 mmHg
COc1cccc(C=CCN2CCC(=C3c4ccccc4C=Cc4ccccc43)CC2)c1[N+](=O)[O-].Cl [Example 377]			Decrease in systolic blood pressure (mmHg) time after administration (hour) 0.5 (dose 1 mg/kg i.v. bolus): −151 mmHg; Decrease in systolic blood pressure (mmHg) time after administration (hour) 4 (dose 1 mg/kg i.v. bolus): −73 mmHg
COC(=O)c1c(C)nc(CCCCN2CCC(=C3c4ccccc4C=Cc4ccccc43)CC2)c(C(=O)OC)c1C.Cl [Example 323, 2-(4-(4-(5H-Dibenzo[a,d]cyclohepten-5-ylidene)-1-piperidinyl)-1-butyl)-3,4-5,6-tetramethylpyridine-3,5-dicarboxylate hydrochloride]	−117 mmHg	−11 mmHg	
CCC(CCN1CCC(=C2c3ccccc3C=Cc3ccccc32)CC1)C(=O)c1ccc(OC)c(OC)c1.Cl (stereo not drawn) [Example 278, 4-(4-(5H-dibenzo[a,d]cyclohepten-5-ylidene)-1-piperidinyl)-2-ethyl-3′,4′-dimethoxybutyrophenone hydrochloride]	−64 mmHg	2 mmHg	
CCOC(=O)N1CCCC(CCCCN2CCC(=C3c4ccccc4C=Cc4ccccc43)CC2)C1.Cl (stereo not drawn) [Example 312, 4-(4-(5H-Dibenzo[a,d]cyclohepten-5-ylidene)-1-piperidinyl)-1-(N-ethoxycarbonyl-3-piperidinyl)butane hydrochloride]	−115 mmHg	−11 mmHg	
C1=Cc2ccccc2C(=C2CCN(CCCCC3CCOCC3)CC2)c2ccccc21.Cl [Example 305, 4-(4-(4-(5H-Dibenzo[a,d]cyclohepten-5-ylidene)-1-piperidinyl)-1-butyl)tetrahydropyran hydrochloride]	−95 mmHg	−9 mmHg	
CC(=O)Nc1cccc2c1CC(CN1CCC(=C3c4ccccc4C=Cc4ccccc43)CC1)C2.Cl (stereo not drawn) [Example 331, 4′Acetylamino-2(4-(5H-Dibenzo[a,d]cyclohepten-5-ylidene)-1-Piperidinyl)methylindan hydrochloride]	−62 mmHg	−14 mmHg	
Cl.O=c1[nH]c2ccccc2c(=O)n1CCN1CCC(=C2c3ccccc3C=Cc3ccccc32)CC1 [Example 28]	−52 mmHg	4 mmHg	
Cl.O=[N+]([O-])c1ccc(C=CCN2CCC(=C3c4ccccc4CCc4ccccc43)CC2)cc1 [Example 350, 4-(10,11-Dihydro-5H-dibenzo[a,d]cyclohepten-5-ylidene)-1-(4-nitrocinnamyl)piperidine hydrochloride]	−136 mmHg	−85 mmHg	
CC(=O)Nc1ccc(CCCCN2CCC(=C3c4ccccc4C=Cc4ccccc43)CC2)cc1.Cl.Cl [Example 197]	−51 mmHg	−26 mmHg	
Cl.O=C(CCCN1CCC(=C2c3ccccc3C=Cc3ccccc32)CC1)N1CCC(O)CC1 [Example 216, 1-(4-(4-(5H-Dibenzo[a,d]cyclohepten-5-ylidene)-1-piperidinyl)butanoyl)-4-hydroxypiperidine hydrochloride]			Decrease in systolic blood pressure (mmHg) time after administration (hour) 0.5 (dose 3 mg/kg i.v. bolus): −2 mmHg; Decrease in systolic blood pressure (mmHg) time after administration (hour) 4 (dose 3 mg/kg i.v. bolus): −27 mmHg
C1=Cc2ccccc2C(=C2CCN(Cc3ccc4ccccc4c3)CC2)c2ccccc21.Cl [Example 212, 4-(5H-Dibenzo[a,d]cyclohepten-5-ylidene)-1-(2-naphthylmethyl)piperidine hydrochloride]	−155 mmHg		
CC(=O)NC1CCC(CCCCN2CCC(=C3c4ccccc4C=Cc4ccccc43)CC2)CC1.Cl (stereo not drawn) [Example 260, 1-(4-acetylamino-1-cyclohexyl)-4-(4-(5H-dibenzo[a,d]cyclohepten-5-ylidene)-1-piperidinyl)butane hydrochloride]	−51 mmHg	−10 mmHg	
COc1ccc(C(=O)C(CCN2CCC(=C3c4ccccc4C=Cc4ccccc43)CC2)C(C)C)cc1OC.Cl (stereo not drawn) [Example 275, 4-(4-(5H-Dibenzo[a,d]cyclohepten-5-ylidene)-1-piperidinyl)-2-(2-propyl)-3′,4′-dimethoxybutyrophenone hydrochloride]	−66 mmHg	−20 mmHg	
C1=Cc2ccccc2C(=C2CCN(CCCCc3ccc[nH]3)CC2)c2ccccc21.Cl [Example 293, 4-(4-(5H-Dibenzo[a,d]cyclohepten-5-ylidene)-1-piperidinyl)-1-(2-pyrolle)-1-butane hydrochloride]	−122 mmHg	4 mmHg	
Cl.O=C(NCCN1CCCCC1=C1c2ccccc2C=Cc2ccccc21)C1CCCCC1 [Example 243, N-(2-(5H-Dibenzo[a,d]cyclohepten-5-ylidene)-1-piperidinyl)ethyl cyclohexanecarboxamide hydrochloride]	−111 mmHg	−31 mmHg	
O=C(O)CCCN1CCC(=C2c3ccccc3C=Cc3ccccc32)CC1 [Example 200]	−10 mmHg	−24 mmHg	
Cl.N#CC1CCC(CCCCN2CCC(=C3c4ccccc4C=Cc4ccccc43)CC2)CC1 (stereo not drawn) [Example 297, 1-(1-(4-Cyano)cyclohexyl)-4-(4-(5H-Dibenzo[a,d]cyclohepten-5-ylidene)-1-piperidinyl)butane hydrochloride]	−129 mmHg	−57 mmHg	
CC(CC(=O)N1CCSCC1)N1CCC(=C2c3ccccc3C=Cc3ccccc32)CC1.Cl (stereo not drawn) [Example 246]	−34 mmHg	−4 mmHg	
COc1cc(C=CCN2CCC(=C3c4ccccc4C=Cc4ccccc43)CC2)cc(OC)c1OC.Cl [Example 320, 4-(5H-Dibenzo[a,d]cyclohepten-5-ylidene)-1-(3,4,5-trimethoxycinnamyl)piperdine hydrochloride]	−147 mmHg	−113 mmHg	
CC(C)(C)C(=O)Nc1ccc(C=CCN2CCC(=C3c4ccccc4C=Cc4ccccc43)CC2)cc1.Cl [Example 379]			Decrease in systolic blood pressure (mmHg) time after administration (hour) 0.5 (dose 1 mg/kg i.v. bolus): −118 mmHg; Decrease in systolic blood pressure (mmHg) time after administration (hour) 4 (dose 1 mg/kg i.v. bolus): −59 mmHg
C1=Cc2ccccc2C(=C2CCN(CCC3Cc4ccccc4C3)CC2)c2ccccc21.Cl [Example 310, 2-(2-(4-(5H-Dibenzo[a,d]cyclohepten-5-ylidene)-1-piperidinyl)-1-ethyl)indane hydrochloride]	−90 mmHg	−18 mmHg	
CCCCC(C#N)(CCCN1CCC(=C2c3ccccc3C=Cc3ccccc32)CC1)c1cccc(C(F)(F)F)c1.Cl (stereo not drawn) [Example 150, 2-Butyl-5-(4-(5H-Dibenzo[a,d]cyclohepten-5-ylidene)-1-piperidinyl)-2-(3-trifluoromethylphenyl)valeronitrile hydrochloride]	−110 mmHg	−47 mmHg	
C1=Cc2ccccc2C(=C2CCN(Cc3ccccn3)CC2)c2ccccc21.Cl.Cl [Example 161, 4-(5H-Dibenzo[a,d]cyclohepten-5-ylidene)-1-(2-Picolyl)piperidine dihydrochloride]	−64 mmHg	−12 mmHg	
Cl.OC1CCCC(CCCCN2CCC(=C3c4ccccc4C=Cc4ccccc43)CC2)C1 (stereo not drawn) [Example 300, 1-(1-(3-Hydroxyoxy)cyclohexyl)-4-(4-(5H-dibenzo[a,d]cyclohepten-5-ylidene)-1-piperidinyl)butane hydrochloride]	−97 mmHg	−22 mmHg	
